Where two headings read alike, the source gives them in different places.
Assays:
[1] = Toxicity in mice after a single i.p. injection (maximal never-lethal dose); format: in vivo, souris; conditions: for DL0 (i.p.): as printed in the compound cell of the dose-response table; for DL0 (Dose maximale jamais mortelle): mice; for toxicités générales (facteur d'augmentation): change on hydroxylation at position 10 of the named parent; for augmentation de la toxicité (facteur): fold increase on quaternisation
Text: (§1) En pratique, on a utilisé des souris ayant reçu par voie intrapéritonéale un inoculum de cellules de leucémie L 1210 et ayant été, pour la moitié d'entre elles, soumises 24 heures après ladite inoculation tumorale à une injection intrapéritonéale d'une dose unique de l'un des composés à tester; l'autre moitié des souris a reçu une injection d'un volume identique d'un solvant inactif et servait de série témoin. On a réparti les souris au hasard dans chaque série expérimentale. Une première expérimentation de routine a permis de déterminer la mortalité par toxicité et de fixer ainsi les doses infra-létales.
On a ainsi pu déterminer la mortalité par toxicité sous l'effet d'une injection unique de l'un des composés à différentes doses (doses infra-létales DL 50 et DL 100) et évaluer le taux de survie du groupe d'animaux auxquels on n'avait injecté qu'une dose infra-létale d'un composé selon l'invention.
Pour l'évaluation de l'activité thérapeutique des composés selon l'invention, on a exprimé les doses desdits composés en les rapportant à la dose infra-létale 30 jours, que l'on a posée égale à 1. Cette dose infra-létale s'est en effet avérée plus facile à déterminer pour les composés de l'invention que la DL 10, dont elle est d'ailleurs très voisine et qui est habituellement prise comme référence pour l'évaluation de l'activité thérapeutique de composés à effet antitumoral (voir H.E. Skipper et coll., ouvrages cités).

[2] = test system: leucémie L 1210; test: Antitumour effect in DBA/2 mice inoculated i.p. with 10^5 L1210 leukaemia cells, single i.p. injection 24 h later; format: in vivo, souris; conditions: for propriétés antitumorales: change on hydroxylation at position 10 of the named parent; for effet thérapeutique antitumoral: change on quaternisation; for propriétés antitumorales chez l'animal (facteur d'accroissement): fold increase on methoxylation at position 10 of the named parent
Text: as §1
Conformément à la convention en usage dans ce domaine, on considérait comme guéris les animaux qui survivaient plus de 45 jours après l'inoculation de cellules tumorales.
On a calculé le taux de survie à partir d'une analyse statistique des résultats expérimentaux, par comparaison avec les résultats obtenus avec la série témoin, selon les méthodes bien connues de Mann-Whitey et de Wilcoxon; le pourcentage de cellules leucémiques tuées par le traitement réalisé était calculé par la méthode décrite par H.E.Skipper et coll. dans les articles cités plus haut, en prenant pour base, suivant le cas, soit l'augmentation de la survie moyenne en l'absence de survivants soit le pourcentage de survivants.
[…] Après 24 heures, on a fait à une moitié de ces souris une injection unique par voie intrapéritonéale d'une dose variable du composé respectif à tester (éventuellement mis au préalable sous la forme de l'un de ses sels hydrosolubles, si nécessaire), tandis qu'on injectait par la même voie à l'autre moitié des souris un même volume de solvant; cette dernière moitié du groupe de souris servait donc de série témoin. On a réparti les souris au hasard dans chaque série expérimentale.

[3] = test system: cellules L1210; test: In vitro growth inhibition of L1210 cells (48 h culture); conditions: for IC50: read-out: DI50 (Dose qui réduit de 50 % la croissance des cellules L1210); for diminution de la cytotoxicité (facteur): fold decrease on quaternisation, versus the non-quaternised base
[4] = dose 0,01 of DL0, controls 9,3 ± 0,5 days, 15 mice
[5] = dose 0,1 of DL0, controls 9,3 ± 0,5 days, 15 mice
[6] = dose 0,01 of DL0, controls 9,7 ± 0,9 days, 10 mice
[7] = dose 0,05 of DL0, controls 9,3 ± 0,5 days, 15 mice
[8] = dose 0,5 of DL0, controls 9,3 ± 0,5 days, 15 mice
[9] = dose 0,5 of DL0, controls 9,7 ± 0,9 days, 10 mice
[10] = dose 0,8 of DL0, single i.p., ILS = T/C x 100
[11] = dose 1 of DL0, controls 9,3 ± 0,5 days, 15 mice
[12] = dose 0,005 of DL0, controls 9,3 ± 0,5 days, 15 mice
[13] = dose 0,1 of DL0, controls 9,2 days, 15 mice
[14] = dose 0,02 of DL0, controls 9,7 ± 0,9 days, 10 mice
[15] = dose 0,02 of DL0, controls 9,2 days, 15 mice
[16] = dose 0,5 of DL0, controls 9,2 days, 15 mice
[17] = dose 1 of DL0, controls 9,7 ± 0,9 days, 10 mice
[18] = dose 1 of DL0, controls 9,2 days, 15 mice
[19] = versus the non-quaternised base

CCN(CC)CC[n+]1ccc2c(C)c3[nH]c4ccc(O)cc4c3cc2c1C [4-β-diéthylaminoéthyl 10-OH olivacinium (acétate)]
DL0 (i.p.) [1]: 4-β -diéthyl-aminoéthyl 10-hydroxy olivacinium (acétate) DL0 (i.p.) = 100 mg
DL0 (Dose maximale jamais mortelle) [1]: 125 mg/kg
% de cellules tumorales tuées [2, 4]: 99%
ILS [2, 4]: 128%
survie moyenne en jours des souris traitées [2, 4]: 11,9 ± 1,1 jours
survivants [2, 4]: 0/15
% de cellules tumorales tuées [2, 5]: 99,997%
ILS [2, 5]: 162%
survie moyenne en jours des souris traitées [2, 5]: 15,1 ± 1,4 jours
survivants [2, 5]: 0/15
% de cellules tumorales tuées [2, 6]: 97%
ILS [2, 6]: 120%
survie moyenne en jours des souris traitées [2, 6]: 11,6 ± 1,1 jours
survivants [2, 6]: 0/10
% de cellules tumorales tuées [2, 7]: 99,8%
ILS [2, 7]: 136%
survie moyenne en jours des souris traitées [2, 7]: 12,7 ± 0,4 jours
survivants [2, 7]: 1/15
% de cellules tumorales tuées [2, 8]: ≃99,999%
ILS [2, 8]: 240%
survie moyenne en jours des souris traitées [2, 8]: 22,3 ± 4,4 jours
survivants [2, 8]: 1/15
% de cellules tumorales tuées [2, 9]: 99,98%
ILS [2, 9]: 150%
survie moyenne en jours des souris traitées [2, 9]: 14,5 ± 2 jours
survivants [2, 9]: 0/10
ILS [2, 10]: 182%
survivants sur 15 ([2]; dose 0,8 of DL0, single i.p., out of 15 mice): 4
% de cellules tumorales tuées [2, 11]: ≃99,999%
ILS [2, 11]: 182%
survie moyenne en jours des souris traitées [2, 11]: 16,9 ± 3,7 jours
survivants [2, 11]: 4/15
% de cellules tumorales tuées [2, 12]: 99%
ILS [2, 12]: 127%
survie moyenne en jours des souris traitées [2, 12]: 11,8 ± 0,8 jours
survivants [2, 12]: 0/15
IC50 ([3]; Mus musculus, L1210, 48 h): 0.236 µM

Cc1nccc2c(C)c3[nH]c4ccc(O)cc4c3cc12 [10-hydroxy olivacine (acétate)]
DL0 (i.p.) [1]: 10-hydroxy olivacine (acétate) DL0(i.p.) = 50 mg
ILS [2, 13]: non significatif
survie moyenne en jours des souris traitées [2, 13]: 10,9 jours
survivants [2, 13]: 0/15
ILS [2, 14]: non significatif
survie moyenne en jours des souris traitées [2, 14]: 10,5 ± 0,8 jours
survivants [2, 14]: 0/10
ILS [2, 15]: non significatif
survie moyenne en jours des souris traitées [2, 15]: 9,6 jours
survivants [2, 15]: 0/15
ILS [2, 16]: non significatif
survie moyenne en jours des souris traitées [2, 16]: 12,1 jours
survivants [2, 16]: 0/15
% de cellules tumorales tuées [2, 17]: 98,98%
ILS [2, 17]: 148%
survie moyenne en jours des souris traitées [2, 17]: 14,4 ± 1,3 jours
survivants [2, 17]: 2/10
ILS [2, 18]: non significatif
survie moyenne en jours des souris traitées [2, 18]: 11,8 jours
survivants [2, 18]: 0/15

Cc1nccc2c(C)c3[nH]c4ccc(O)cc4c3cc12 [10-hydroxy olivacine]
DL0 (Dose maximale jamais mortelle) [1]: 50 mg/kg
ILS [2, 10]: 139%
IC50 ([3]; Mus musculus, L1210, 48 h): 0.02 µM

COc1ccc2[nH]c3c(C)c4ccnc(C)c4cc3c2c1 [10-méthoxy olivacine, reference compound]
DL0 (Dose maximale jamais mortelle) [1]: 150 mg/kg
ILS ([2]; dose 0,66 of DL0, single i.p., ILS = T/C x 100): 147%
IC50 ([3]; Mus musculus, L1210, 48 h): 1.09 µM

Cc1nccc2c(C)c3[nH]c4ccccc4c3cc12 [olivacine]
toxicités générales (facteur d'augmentation) [1]: 5
propriétés antitumorales [2]: ne modifie que peu
effet thérapeutique antitumoral [2]: disparition de l'effet thérapeutique antitumoral
propriétés antitumorales chez l'animal (facteur d'accroissement) [2]: 1,3

Acétate de 4-méthyl 10-hydroxy olivacinium
diminution de la toxicité (facteur) ([1]; fold decrease on quaternisation, versus the non-quaternised base): 2
DL0 (Dose maximale jamais mortelle) [1]: 100 mg/kg
effet thérapeutique antitumoral [2]: n'est pas modifiée
ILS ([2]; dose 1 of DL0, single i.p., ILS = T/C x 100): 155%
diminution de la cytotoxicité (facteur) [3]: 28,1
diminution de la cytotoxicité (facteur) ([3]; listed as 10-hydroxy olivacine quaternarisée): ~30
IC50 ([3]; L1210 cells, versus controls, after 48 h of culture): 0.562 µM

Acétate de 4-méthyl 10-méthoxy olivacinium
augmentation de la toxicité (facteur) [1, 19]: 1,5
diminution de la cytotoxicité (facteur) [3]: 1,3

Acétate de 4-méthyl olivacinium
toxicités générales (facteur d'augmentation) [1]: ne varient pas
augmentation de la toxicité (facteur) [1, 19]: 3,3
propriétés antitumorales [2]: fait par contre apparaître des propriétés antitumorales
propriétés antitumorales chez l'animal (facteur d'accroissement) [2]: 1,7
diminution de la cytotoxicité (facteur) [3]: 1,4
augmentation de la cytotoxicité (facteur) ([3]; fold increase on hydroxylation at position 10 of the named parent): 4
